These results are taken from US20190059375A1, “SYNERGISTIC FUNGICIDAL COMPOSITION FOR CONTROLLING PLANT DISEASES” (Sumitomo Chemical Company, Limited, priority 2016, published 2019).

Experiment [1] has as its system Brown rust (Puccinia recondita). As to the kind of experiment: Test Example 4: foliar spray on wheat, Brown rust lesion area. Format: in vivo, Puccinia recondita on wheat (cultivar. Shirogane). Conditions: single use, foliar spray one day before inoculation, lesion area after ten days. The procedure:
Five (5) parts of the present compound 1, 35 parts of a mixture of white carbon and ammonium polyoxyethylene alkyl ether sulfate (the weight ratio of 1:1) and […] of water were mixed, and the mixture was then finely-ground by a wet grinding method to obtain a flowable comprising the present compound 1. Separately, the flowable comprising the present compound 2 was prepared according to the above-mentioned similar method except that the present compound 2 was used instead of the present compound 1.
Each of the flowable comprising the present compound 1 and the flowable comprising the present compound 2 was diluted with water and if necessary, the resultant dilute solutions were mixed each other such that each concentration of the respective compounds in the dilution solution was adjusted to the concentration indicated in Table 3, to prepare the dilution solutions, respectively.
A plastic pot was filled with soil, and thereto wheat (cultivar. Shirogane) was seeded, and the plants were grown in a greenhouse for ten days. The above-mentioned dilution solutions were sprayed to foliar parts so as to adhere adequately onto the surfaces of leaves of the above wheats. After spraying the dilute solution, the plants were air-dried, and one day after the application, an aqueous suspension of uredospores of Brown rust (Puccinia recondita) was inoculated by spraying thereto. After the inoculation, the plants were placed at 27° C. under humid condition for one day, and were then cultivated under lighting for ten days, and a lesion area was examined (hereinafter referred to as “lesion area of treated group”).
Whereas, wheats were cultivated similarly to the treated group except that no foliage application of the above-mentioned agent solution was done, and Brown rust were inoculated, and the lesion area thereof was examined (hereinafter referred to as “lesion area of the untreated group”).
From each of the lesion area of the treated group and the untreated group, respectively, the efficacy of the treated group was calculated by the following Equation 2. […]

The test system of experiment [2] is Septoria leaf blotch (Mycosphaerella graminicola). As to the kind of experiment: Test Example 3: growth of Septoria leaf blotch in YBG medium, microtiter plate, absorbance at 550 nm. Format: cell-based. To be noted: single use, concentration in medium 0.005 ppm; 18° C., four days. As to the method: Each of the present compound 1 or the present compound 2 was dissolved into dimethyl sulfoxide such that each concentration of these compounds was adjusted to one hundred fifty times as much as the concentration indicated in the below-mentioned Table 2. The resultant agent solution was dispensed into each microtiter plate (with 96 wells) in 1 μl portion thereof per well. […] The plate was cultivated at 18° C. for four days, thereby allowing Septoria leaf blotch (Mycosphaerella graminicola) to undergo proliferation, and the absorbance at 550 nm of each well of the microtiter plate was then measured to examine a degree of growth of Septoria leaf blotch (hereinafter referred to as “treated group”).
Whereas, Septoria leaf blotch was proliferated similarly to the case of the treated group except that dimethyl sulfoxide was used instead of the agent solution, and the degree of the growth was examined (hereinafter referred to as “untreated group”). The efficacy was calculated from each of the obtained degree of growth of the treated group and the untreated group respectively by the following “Equation 1”. […]

For the compound `CNC(=O)C(OC)c1ccccc1COc1cc(C)ccc1C` (stereo not shown) [Present compound 1], the entries for the “Efficacy (%)” value in experiment [1] (concentration in agent solution 0.0001 ppm), in experiment [1] (concentration in agent solution 0.01 ppm) and in experiment [2] were 22%, 46% and 20%, respectively.
Turning to `CC1CC(C)(C)c2c(F)ccc(NC(=O)c3cn(C)nc3C(F)F)c21` (stereo not shown) [Present compound 2], the “Efficacy (%)” value in experiment [1] (concentration in agent solution 0.001 ppm) was found to be 15%.
